Data: US20150306110A1, “COMPOSITIONS AND METHODS FOR TREATMENT OF INFLAMMATION AND HYPERKERATOTIC LESIONS” (Novelix Pharmaceuticals, Inc., priority 2008, published 2015)

Tests used:
A549 = assay: Cell growth/survival, A549 lung adenocarcinoma cells; format: cell-based; details: Homo sapiens, TP53 neg.
Protocol: (§1) Melanoma cell lines used in this study were maintained in Dulbecco's modified Eagle medium (DMEM with 4500 mg/l glucose) supplemented with 10% FCS from Gibco BRL (Life Technologies, Berlin, Germany). The canine mastocytoma cell line C2 (DeVinney et al, Am. J. Respir. Cell Mol. Biol. 3:413-20, 1990) was used in this study, along with additional human cell lines: RD-ES and TC-71 (human Ewing's sarcoma), SAOS2 (human osteosarcoma), HT-1080 (human fibrosarcoma), Caco-2 (human colon adenocarcinoma), A549 (human lung adenocarcinoma), Hep-G2 and Hep-3B (human hepatocellular carcinoma), SK-N-DZ and SK-N-FI (human embryonal neuroblastoma), HTB9 (human bladder cancer), MDA-468 and MCF-7 (human breast cancer) and SW872 liposarcoma. All breast cancer cells were routinely cultured in DMEM/F-12 or in DMEM alone supplemented with 10% FCS at 37° C. in a humidified 5% CO2 atmosphere. RD-ES and TC-71 sarcoma cell lines were maintained in RPMI 1640 (Biochrom KG, Berlin, Germany) containing 10% FCS at 37° C. in a humidified 5% CO2 atmosphere. […]
(§2) Briefly, cells were maintained in standard medium, harvested, and plated at equal densities (750,000 cells in 5 cm tissue culture dishes). […] For the assessment of cell growth, the number of surviving cells was determined using an automated cell counter from Beckman Coulter GmbH (Krefeld, Germany). […]

MDA-MB-468 = assay: Cell growth/survival, MDA-MB-468 breast cancer cells; format: cell-based; details: Homo sapiens, TP53 mut.
Protocol: as §1, §2

SK-N-DZ = assay: Cell growth/survival, SK-N-DZ neuronal cancer cells; format: cell-based; details: Homo sapiens, TP53 mut.
Protocol: as §1, §2

Hep-3B = assay: Cell growth/survival, Hep-3B hepatocellular carcinoma cells; format: cell-based; details: Homo sapiens, Hep3B, TP53 null
Protocol: as §1, §2

Hep-G2 = assay: Cell growth/survival, Hep-G2 hepatocellular carcinoma cells; format: cell-based; details: Homo sapiens, HepG2, TP53 neg.
Protocol: as §1, §2

RD-ES (Ewing's sarcoma) = assay: Cell growth/survival, RD-ES Ewing's sarcoma cells; format: cell-based; details: Homo sapiens, TP53 mut.
Protocol: as §1, §2

TC-71 (Ewing's sarcoma) = assay: Cell growth/survival, TC-71 Ewing's sarcoma cells; format: cell-based; details: Homo sapiens, TP53 mut.
Protocol: as §1, §2

SW872 (liposarcoma) = assay: Cell growth/survival, SW872 liposarcoma cells; format: cell-based; details: Homo sapiens, TP53 mut.
Protocol: as §1, §2

human fibroblasts = assay: Survival of fibroblasts at 80% and 30% confluency; format: cell-based; details: 2.5 μM; for Mean survival, percentage of control-treated cells: fibroblasts, n=3
Protocol: All cells were treated with 2.5 μM NVX-207. Percentage (means±S.E., n=3) of control-treated cells are given. […] Mean survival in NVX-207 treated fibroblasts at 80% confluency was 92% (S.E.=3.8) versus 3.8% mean survival (S.E.=0.4) at 30% confluency. […] HUVECs, keratinocytes and fibroblast cells were obtained from Lonza GmbH (Wuppertal, Germany) and cultivated according to the manufacturer's instructions.
Human umbilical vein endothelial cells (HUVEC), keratinocytes and fibroblast cells were obtained from Lonza GmbH (Wuppertal, Germany) and cultivated according to the manufacturer's instructions. […] The IC50 value of betulinic acid in human keratinocytes was recently determined to be ˜5.0 μg/ml (Tino Galgon al., Exp Dermatol. 14:736-43, 2005), while the IC50 of NVX-207 is ˜0.7 µg/ml. […] Mean survival in NVX-207 treated fibroblasts at 80% confluency was 92% (S.E.=3.8) versus 3.8% mean survival (S.E.=0.4) at 30% confluency. […] Under normal physiological conditions, the endothelium, as well as skin fibroblasts and skin keratinocytes, show relatively low turn-over and limited cell divisions to maintain tissue integrity.
Keratinocytes at high confluence (e.g., 80%) mimic normal physiological conditions in which these cells divide more slowly (fewer cell divisions per unit of time). In contrast, keratinocytes in psoriatic lesions divide more rapidly, as do keratinocytes cultured at lower confluency (e.g., 30%). Thus, the 30% confluency conditions were considered a model for psoriasis whereas the behavior of 80% confluent cells more closely reflects the conditions observed in normal skin.

[1] = test system: hyperkeratotic palpable lesion with inflammatory components; assay: Topical treatment of human hyperkeratotic lesions with inflammatory components; format: in vivo; details: 1% topical solution
Protocol: A 1% topical solution of NVX-207 (20% ethanol, 20% Tween® 80 and 80% water) was applied to human skin to treat a treatment resistant hyperkeratotic palpable lesion with inflammatory components. The NVX-207 was administered once a day on days 1, 2, 3, 10, 11, 12 and 13. Significant improvement (better than 80% reduction) was observed after one day, and additional improvement was observed after a total of six additional treatments applied within 14 days. […] A second identical lesion was treated with the same formulation twice a day for 2 days, and disappeared.

[2] = test system: canine mammary carcinoma, scent gland carcinoma, soft tissue sarcoma; assay: Activity of NVX-207 in additional canine cancer patients (summary); details: dog, in vivo
Description: Overall survival time is given in months.

Soft tissue sarcoma = assay: Intra-tumoral NVX-207 in canine patient, soft tissue sarcoma; details: Patient #1, 11, F; 48 treatment cycles

SMILES: C=C(C)[C@@H]1CC[C@]2(C(=O)OCC(N)(CO)CO)CC[C@]3(C)[C@H](CC[C@@H]4[C@@]5(C)CC[C@H](OC(C)=O)C(C)(C)[C@@H]5CC[C@]43C)[C@@H]12 [NVX-207, 3-O-acetylbetulinic acid-2-amino-3-hydroxy-2-hydroxymethylpropyl ester]
- IC50 (A549): 2.5 µM
- IC50 (MDA-MB-468): 3.6 µM
- IC50 (SK-N-DZ): 2.7 µM
- IC50 (Hep-3B): 3.8 µM
- IC50 (Hep-G2): 3.3 µM
- IC50 (RD-ES (Ewing's sarcoma)): 5.3 µM
- IC50 (TC-71 (Ewing's sarcoma)): 5.5 µM
- IC50 (SW872 (liposarcoma)): 1.8 µM
- Mean survival, percentage of control-treated cells (human fibroblasts; 30% confluency): 3.8%
- Mean survival, percentage of control-treated cells (human fibroblasts; 80% confluency): 92%
- More active against proliferating cells (30% vs 80% confluency) (human fibroblasts; human fibroblasts): over 20 fold
- Deleterious (toxic) effects on the treated areas (inflammation, redness, swelling) [1]: No deleterious (toxic) effects
- Improvement (reduction) of lesion ([1]; after one day): > 80%
- Side effects ([1]; first lesion): No reddening, inflammation or any other side effects were observed
- Inflammation during treatment [2]: absence of inflammation
- Overall Survival (Soft tissue sarcoma): 15 months
